# Measured values reported in patent US11084829B2, “Ubiquitin-specific-processing protease 7 (USP7) modulators and uses thereof” (RAPT THERAPEUTICS, INC., priority 2018, dated 2021).
# Target: USP7 (Homo sapiens, UniProt Q93009)
# Assay: USP7 inhibitory potency (IC50)
# Assay type: biochemical
# Protocol: Activity for compounds described herein is provided in Table 2, wherein potency levels are provided as follows: (Potency: USP7 IC50: A<0.01 μM; B=0.01-0.1 μM; C=>0.1 μM.
# Chain of USP7 (Q93009 whole entry): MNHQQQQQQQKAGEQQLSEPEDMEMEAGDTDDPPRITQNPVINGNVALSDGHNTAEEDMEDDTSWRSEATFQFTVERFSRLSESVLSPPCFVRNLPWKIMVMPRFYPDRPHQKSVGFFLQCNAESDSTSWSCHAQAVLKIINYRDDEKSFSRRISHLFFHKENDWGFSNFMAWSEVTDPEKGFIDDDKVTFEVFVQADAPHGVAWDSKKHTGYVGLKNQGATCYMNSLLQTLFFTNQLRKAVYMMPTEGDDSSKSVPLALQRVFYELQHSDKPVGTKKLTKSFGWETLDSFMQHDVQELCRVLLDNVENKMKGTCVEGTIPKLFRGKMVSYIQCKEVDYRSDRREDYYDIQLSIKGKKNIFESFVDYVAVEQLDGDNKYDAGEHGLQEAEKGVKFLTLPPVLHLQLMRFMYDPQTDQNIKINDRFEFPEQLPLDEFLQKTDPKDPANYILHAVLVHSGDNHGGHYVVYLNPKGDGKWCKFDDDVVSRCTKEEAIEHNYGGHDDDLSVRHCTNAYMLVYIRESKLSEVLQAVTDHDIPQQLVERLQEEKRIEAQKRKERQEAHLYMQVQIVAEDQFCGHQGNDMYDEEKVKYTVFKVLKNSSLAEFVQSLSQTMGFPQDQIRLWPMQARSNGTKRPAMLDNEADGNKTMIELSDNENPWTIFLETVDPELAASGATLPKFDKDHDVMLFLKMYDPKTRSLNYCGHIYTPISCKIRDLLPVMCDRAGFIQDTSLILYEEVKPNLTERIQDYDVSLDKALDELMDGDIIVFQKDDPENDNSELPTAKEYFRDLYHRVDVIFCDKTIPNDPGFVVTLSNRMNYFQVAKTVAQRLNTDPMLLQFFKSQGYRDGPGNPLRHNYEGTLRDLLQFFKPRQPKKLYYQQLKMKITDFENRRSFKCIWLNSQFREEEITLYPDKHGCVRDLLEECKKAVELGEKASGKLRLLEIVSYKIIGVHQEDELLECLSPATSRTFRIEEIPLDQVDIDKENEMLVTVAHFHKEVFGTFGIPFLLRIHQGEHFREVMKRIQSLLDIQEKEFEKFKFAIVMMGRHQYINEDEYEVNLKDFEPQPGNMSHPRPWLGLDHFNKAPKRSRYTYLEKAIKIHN
row,Compound,IC50 [nM]
1,"Cc1cc(Cl)cc(-c2ncnc3ccsc23)c1CC1CNCCO1 (centres unmarked) [Example 173, 2-(4-chloro-2-methyl-6-(thieno[3,2-d]pyrimidin-4-yl)benzyl)morpholine]",> 100
2,"Cc1cc(Cl)cc(-c2ccnc3c(F)c(CN4C(=O)CCN(C)C4=O)sc23)c1C[C@@H]1CNCCO1 [Example 148, (R)-3-((7-(5-chloro-3-methyl-2-(morpholin-2-ylmethyl)phenyl)-3-fluorothieno[3,2-b]pyridin-2-yl)methyl)-1-methyldihydropyrimidine-2,4(1H,3H)-dione]",10 to 100
3,"Cc1cc(Cl)cc(-c2ncnc3cc(CN4C(=O)CCC45CC5)sc23)c1CC1CNCC(C)(C)O1 (centres unmarked) [Example 203, 4-((4-(5-chloro-2-((6,6-dimethylmorpholin-2-yl)methyl)-3-methylphenyl)thieno[3,2-d]pyrimidin-6-yl)methyl)-4-azaspiro[2.4]heptan-5-one]",10 to 100
4,"Cc1cc(Cl)cc(-c2ncnc3cc(CN4CCCC4=O)sc23)c1CN1C[C@@H](C)NC[C@@H]1C [Example 81, 1-((4-(5-chloro-2-(((2S,5R)-2,5-dimethylpiperazin-1-yl)methyl)-3-methylphenyl)thieno[3,2-d]pyrimidin-6-yl)methyl)pyrrolidin-2-one]",> 100
5,"Cc1cc(Cl)cc(-c2ncnc3cc(CN4C(=O)C5CC5C4=O)sc23)c1CC1OCCNC1(C)C (centres unmarked) [Example 159, 3-((4-(5-chloro-2-((3,3-dimethylmorpholin-2-yl)methyl)-3-methylphenyl)thieno[3,2-d]pyrimidin-6-yl)methyl)-3-azabicyclo[3.1.0]hexane-2,4-dione]",10 to 100
6,"Cc1cc(Cl)cc(-c2ncnc3cc(CN4C(=O)CC(C)(C)CC4=O)sc23)c1CN1C[C@@H](C)NC[C@@H]1C [Example 70, 1-((4-(5-chloro-2-(((2S,5R)-2,5-dimethylpiperazin-1-yl)methyl)-3-methylphenyl)thieno[3,2-d]pyrimidin-6-yl)methyl)-4,4-dimethylpiperidine-2,6-dione]",10 to 100
7,"Cc1cc(Cl)cc(-c2ncnc3cc(CN4C(=O)CCN(CC(F)F)C4=O)sc23)c1CN1[C@@H](C)CNC[C@@H]1C [Example 259, 3-((4-(5-chloro-2-(((2S,6S)-2,6-dimethylpiperazin-1-yl)methyl)-3-methylphenyl)thieno[3,2-d]pyrimidin-6-yl)methyl)-1-(2,2-difluoroethyl)dihydropyrimidine-2,4(1H,3H)-dione]",< 10
8,"CC1(C)CNCC(Cc2c(Cl)cc(Cl)cc2-c2ccnc3cc(CN4C(=O)CCC4=O)sc23)O1 (centres unmarked) [Example 128, 1-((7-(3,5-dichloro-2-((6,6-dimethylmorpholin-2-yl)methyl)phenyl)thieno[3,2-b]pyridin-2-yl)methyl)pyrrolidine-2,5-dione]",< 10
9,"Cc1cc(Cl)cc(-c2ccnc3cc(CN4C(=O)C5CC5C4=O)sc23)c1C[C@H]1CNCC(C)(C)O1 (stereo partly drawn) [Example 134, 3-((7-(5-chloro-2-(((S)-6,6-dimethylmorpholin-2-yl)methyl)-3-methylphenyl)thieno[3,2-b]pyridin-2-yl)methyl)-3-azabicyclo[3.1.0]hexane-2,4-dione]",10 to 100
10,"Cc1cc(Cl)cc(-c2ccnc3cc(CN4C(=O)C5CC5C4=O)sc23)c1CC1CNCCS1(=O)=O (centres unmarked) [Example 100, 3-((7-(5-chloro-2-((1,1-dioxidothiomorpholin-2-yl)methyl)-3-methylphenyl)thieno[3,2-b]pyridin-2-yl)methyl)-3-azabicyclo[3.1.0]hexane-2,4-dione]",10 to 100
11,"C[C@H]1CNC[C@H](C)N1Cc1c(Cl)cc(Cl)cc1-c1ccnc2cc(CN3C(=O)CCN(C)C3=O)sc12 [Example 49, 3-((7-(3,5-dichloro-2-(((2S,6S)-2,6-dimethylpiperazin-1-yl)methyl)phenyl)thieno[3,2-b]pyridin-2-yl)methyl)-1-methyldihydropyrimidine-2,4(1H,3H)-dione]",< 10
12,"Cc1cc(Cl)cc(-c2ncnc3cc(CN4C(=O)CCC4=O)sc23)c1C[C@@H]1CNCCO1 [Example 197, (R)-1-((4-(5-chloro-3-methyl-2-(morpholin-2-ylmethyl)phenyl)thieno[3,2-d]pyrimidin-6-yl)methyl)pyrrolidine-2,5-dione]",< 10
13,"Cc1cc(Cl)cc(-c2ncnc3cc(CN4C(=O)C5CC5C4=O)sc23)c1CN1CCN(C)C[C@@H]1C (stereo partly drawn) [Example 55, 3-((4-(5-chloro-2-(((S)-2,4-dimethylpiperazin-1-yl)methyl)-3-methylphenyl)thieno[3,2-d]pyrimidin-6-yl)methyl)-3-azabicyclo[3.1.0]hexane-2,4-dione]",10 to 100
14,"Cc1cc(Cl)cc(-c2ccnc3cc(CN4C(=O)CN(C)C4=O)sc23)c1CC1CNCCO1 (centres unmarked) [Example 117, 3-((7-(5-chloro-3-methyl-2-(morpholin-2-ylmethyl)phenyl)thieno[3,2-b]pyridin-2-yl)methyl)-1-methylimidazolidine-2,4-dione]",< 10
15,"COC(=O)[C@H]1CCC(=O)N1Cc1cc2ncnc(-c3cc(Cl)cc(C)c3C[C@@H]3CNCC(C)(C)O3)c2s1 [Example 224, methyl (R)-1-((4-(5-chloro-2-(((R)-6,6-dimethylmorpholin-2-yl)methyl)-3-methylphenyl)thieno[3,2-d]pyrimidin-6-yl)methyl)-5-oxopyrrolidine-2-carboxylate]",< 10
16,"Cc1cc(Cl)cc(-c2ncnc3cc(CN4C(=O)C5CC5C4=O)sc23)c1CC1CNCCCO1 (centres unmarked) [Example 189, 3-((4-(2-((1,4-oxazepan-2-yl)methyl)-5-chloro-3-methylphenyl)thieno[3,2-d]pyrimidin-6-yl)methyl)-3-azabicyclo[3.1.0]hexane-2,4-dione]",< 10
17,"Cc1cc(Cl)cc(-c2ccnc3cc(CN4C(=O)C5CC5C4=O)sc23)c1CN1C[C@@H](C)NC[C@@H]1C (stereo partly drawn) [Example 36, 3-((7-(5-chloro-2-(((2S,5R)-2,5-dimethylpiperazin-1-yl)methyl)-3-methylphenyl)thieno[3,2-b]pyridin-2-yl)methyl)-3-azabicyclo[3.1.0]hexane-2,4-dione]",10 to 100

# The next lines start with the values.
row,IC50 [nM],Compound
1,< 10,"Cc1cc(Cl)cc(-c2ncnc3cc(CN4C(=O)N(C)C(C)(C)C4=O)sc23)c1C[C@@H]1CNCC(C)(C)O1 [Example 233, (R)-3-((4-(5-chloro-2-((6,6-dimethylmorpholin-2-yl)methyl)-3-methylphenyl)thieno[3,2-d]pyrimidin-6-yl)methyl)-1,5,5-trimethylimidazolidine-2,4-dione]"
2,< 10,"Cc1cc(Cl)cc(-c2ccnc3cc(CN4C(=O)CCC4=O)sc23)c1CN1[C@@H](C)CNC[C@@H]1C [Example 14, 1-((7-(5-chloro-2-(((2S,6S)-2,6-dimethylpiperazin-1-yl)methyl)-3-methylphenyl)thieno[3,2-b]pyridin-2-yl)methyl)pyrrolidine-2,5-dione]"
3,< 10,"Cc1cc(Cl)cc(-c2ccnc3cc(CN4C(=O)CN(C)C4=O)sc23)c1C[C@@H]1CNCCO1 [Example 126, (R)-3-((7-(5-chloro-3-methyl-2-(morpholin-2-ylmethyl)phenyl)thieno[3,2-b]pyridin-2-yl)methyl)-1-methylimidazolidine-2,4-dione]"
4,< 10,"3-((7-(3,5-dichloro-2-(((2S,6S)-2,6-dimethylpiperazin-1-yl)methyl)phenyl)thieno[3,2-b]pyridin-2-yl)methyl)-1-methyldihydropyrimidine-2,4(1H,3H)-dione [Example 93]"
5,< 10,"Cc1cc(Cl)cc(-c2ncnc3cc(CN4C(=O)CN(CC(F)(F)F)C4=O)sc23)c1CC1CNCCO1 (centres unmarked) [Example 176, 3-((4-(5-chloro-3-methyl-2-(morpholin-2-ylmethyl)phenyl)thieno[3,2-d]pyrimidin-6-yl)methyl)-1-(2,2,2-trifluoroethyl)imidazolidine-2,4-dione]"
6,< 10,"Cc1cc(Cl)cc(-c2ncnc3cc(CN4C(=O)CCN(C)C4=O)sc23)c1CC1CNCC2(CCC2)O1 (centres unmarked) [Example 222, 3-((4-(2-((5-oxa-8-azaspiro[3.5]nonan-6-yl)methyl)-5-chloro-3-methylphenyl)thieno[3,2-d]pyrimidin-6-yl)methyl)-1-methyldihydropyrimidine-2,4(1H,3H)-dione]"
7,< 10,"Cc1cc(Cl)cc(-c2ccnc3cc(Cn4c(=O)ccn(C)c4=O)sc23)c1CC1CNCCO1 (centres unmarked) [Example 108, 3-((7-(5-chloro-3-methyl-2-(morpholin-2-ylmethyl)phenyl)thieno[3,2-b]pyridin-2-yl)methyl)-1-methylpyrimidine-2,4(1H,3H)-dione]"
8,< 10,"Cc1cc(Cl)cc(-c2ncnc3cc(CN4C(=O)C5C(C4=O)C5(C)C)sc23)c1CN1C[C@@H](C)NC[C@@H]1C (stereo partly drawn) [Example 67, 3-((4-(5-chloro-2-(((2S,5R)-2,5-dimethylpiperazin-1-yl)methyl)-3-methylphenyl)thieno[3,2-d]pyrimidin-6-yl)methyl)-6,6-dimethyl-3-azabicyclo[3.1.0]hexane-2,4-dione]"
9,< 10,"Cc1cc(Cl)cc(-c2ccnc3cc(CN4C(=O)C5C(C4=O)C5(C)C)sc23)c1CN1CCNC[C@@H]1C (stereo partly drawn) [Example 20, 3-((7-(5-chloro-3-methyl-2-(((S)-2-methylpiperazin-1-yl)methyl)phenyl)thieno[3,2-b]pyridin-2-yl)methyl)-6,6-dimethyl-3-azabicyclo[3.1.0]hexane-2,4-dione]"
10,< 10,"Cc1cc(Cl)cc(-c2ncnc3cc(CN4C(=O)CCN(C)C4=O)sc23)c1CC1CNCCO1 (centres unmarked) [Example 164, 3-((4-(5-chloro-3-methyl-2-(morpholin-2-ylmethyl)phenyl)thieno[3,2-d]pyrimidin-6-yl)methyl)-1-methyldihydropyrimidine-2,4(1H,3H)-dione]"
11,< 10,"Cc1cc(Cl)cc(-c2ccnc3cc(CN4C(=O)C5CC5C4=O)sc23)c1CC1CNCCCO1 (centres unmarked) [Example 118, 3-((7-(2-((1,4-oxazepan-2-yl)methyl)-5-chloro-3-methylphenyl)thieno[3,2-b]pyridin-2-yl)methyl)-3-azabicyclo[3.1.0]hexane-2,4-dione]"
12,< 10,"Cc1cc(Cl)cc(-c2ncnc3cc(CN4C(=O)[C@H]5CCCN5C4=O)sc23)c1CN1[C@@H](C)CNC[C@@H]1C [Example 89, (R)-2-((4-(5-chloro-2-(((2S,6S)-2,6-dimethylpiperazin-1-yl)methyl)-3-methylphenyl)thieno[3,2-d]pyrimidin-6-yl)methyl)tetrahydro-1H-pyrrolo[1,2-c]imidazole-1,3(2H)-dione]"
